Experiment: Stability (integrity) testing of amorphous and polymorphic form under storage conditions, RP-HPLC
Assay type: physicochemical
Design: key to Impurity RRT 0.738 / Impurity RRT 0.949 / Impurity RRT 1.050 / Impurity RRT 1.550 / Impurity RRT 0.136 / Impurity RRT 0.720 / Impurity RRT 0.706 / Impurity RRT 1.18 / Impurity RRT 1.826: % of total UV absorption (HPLC peak area); Impurity RRT 1.104 / Impurity RRT 1.698: unit not given beside the values
Conditions: Batch 3 PP00205
Procedure: The integrity of the different forms of the (3R, 5R)-7-[2-(4-fluorophenyl)-5-isopropyl-3-phenyl-4-[(4-hydroxymethylphenylamino)carbonyl]-pyrrol-1-yl]-3,5-dihydroxy-heptanoic acid, hemi calcium salt, was tested under different atmospheric conditions to determine the stability of the amorphous and polymorphic form of the drug in various storage environments. Reversed Phase-HPLC (RP-HPLC) was used to separate (3R, 5R)-7-[2-(4-fluorophenyl)-5-isopropyl-3-phenyl-4-[(4-hydroxymethylphenylamino)carbonyl]-pyrrol-1-yl]-3,5-dihydroxy-heptanoic acid, hemi calcium salt, from smaller molecules representing breakdown products as well as oxidized drug. The relative amount of the drug was reported as a percent of total absorption by UV. The total peak area of all UV absorption impurities was used to define total impurity of the drug. Impurities are defined by their relative retention time (RRT) compared to native drug. Samples were injected onto a C18 column using standard temperature, gradient and run-time conditions.
The results of this integrity testing for the amorphous form of (3R, 5R)-7-[2-(4-fluorophenyl)-5-isopropyl-3-phenyl-4-[(4-hydroxymethylphenylamino)carbonyl]-pyrrol-1-yl]-3,5-dihydroxy-heptanoic acid, hemi calcium salt, is shown in Table 5.
Three separate batches of polymorphic Form I of (3R, 5R)-7-[2-(4-fluorophenyl)-5-isopropyl-3-phenyl-4-[(4-hydroxymethylphenylamino)carbonyl]-pyrrol-1-yl]-3,5-dihydroxy-heptanoic acid, hemi calcium salt, were prepared and tested under the same atmospheric conditions described for the amorphous form.

Impurity RRT 1.045 (25° C./60% RH 12M): 0.344
Impurity RRT 1.095 (25° C./60% RH 12M): 0.165
Impurity RRT 1.449 (25° C./60% RH 12M): 0.195
Impurity RRT 1.596 (25° C./60% RH 12M): 0.086
Impurity RRT 1.640 (25° C./60% RH 12M): 0.052
Impurity RRT 1.698 (25° C./60% RH 12M): 0.061
Total Impurity (25° C./60% RH 12M): 1.506
Water (25° C./60% RH 12M): 5.57 % W/W
Assay (30° C./65% RH 1M): 98.21 % W/W
Description (30° C./65% RH 1M): White
Highest Impurity (30° C./65% RH 1M): 0.449
Impurity RRT 0.935 (30° C./65% RH 1M): 0.449
Impurity RRT 1.045 (30° C./65% RH 1M): 0.385
Impurity RRT 1.095 (30° C./65% RH 1M): 0.162
Impurity RRT 1.44 (30° C./65% RH 1M): 0.234
Impurity RRT 1.590 (30° C./65% RH 1M): 0.102
Impurity RRT 1.640 (30° C./65% RH 1M): 0.071
Impurity RRT 1.698 (30° C./65% RH 1M): 0.072
Total Impurity (30° C./65% RH 1M): 1.495
Water (30° C./65% RH 1M): 4.47 % W/W
Assay (30° C./65% RH 2M): 98.27 % W/W
Description (30° C./65% RH 2M): White
Highest Impurity (30° C./65% RH 2M): 0.416
Impurity RRT 0.935 (30° C./65% RH 2M): 0.416
Impurity RRT 1.045 (30° C./65% RH 2M): 0.362
Impurity RRT 1.095 (30° C./65% RH 2M): 0.163
Impurity RRT 1.18 (30° C./65% RH 2M): 0.048
Impurity RRT 1.44 (30° C./65% RH 2M): 0.216
Impurity RRT 1.590 (30° C./65% RH 2M): 0.100
Impurity RRT 1.640 (30° C./65% RH 2M): 0.063
Impurity RRT 1.698 (30° C./65% RH 2M): 0.062
Total Impurity (30° C./65% RH 2M): 1.43
Water (30° C./65% RH 2M): 4.59 % W/W
Assay (30° C./65% RH 3M): 98.21 % W/W
Description (30° C./65% RH 3M): White
Highest Impurity (30° C./65% RH 3M): 0.432
Impurity RRT 0.935 (30° C./65% RH 3M): 0.432
Impurity RRT 1.045 (30° C./65% RH 3M): 0.37
Impurity RRT 1.095 (30° C./65% RH 3M): 0.168
Impurity RRT 1.44 (30° C./65% RH 3M): 0.228
Impurity RRT 1.590 (30° C./65% RH 3M): 0.096
Impurity RRT 1.640 (30° C./65% RH 3M): 0.057
Impurity RRT 1.698 (30° C./65% RH 3M): 0.064
Total Impurity (30° C./65% RH 3M): 1.43
Water (30° C./65% RH 3M): 4.82 % W/W
Assay (30° C./65% RH 6M): 98.06 % W/W
Description (30° C./65% RH 6M): White
Highest Impurity (30° C./65% RH 6M): 0.418
Impurity RRT 0.935 (30° C./65% RH 6M): 0.418
Impurity RRT 1.045 (30° C./65% RH 6M): 0.352
Impurity RRT 1.095 (30° C./65% RH 6M): 0.134
Impurity RRT 1.449 (30° C./65% RH 6M): 0.224
Impurity RRT 1.596 (30° C./65% RH 6M): 0.095
Impurity RRT 1.640 (30° C./65% RH 6M): 0.077
Impurity RRT 1.698 (30° C./65% RH 6M): 0.052
Total Impurity (30° C./65% RH 6M): 1.352
Water (30° C./65% RH 6M): 4.87 % W/W
Assay (30° C./65% RH 9M): 97.89 % W/W
Description (30° C./65% RH 9M): White
Highest Impurity (30° C./65% RH 9M): 0.407
Impurity RRT 0.935 (30° C./65% RH 9M): 0.407
Impurity RRT 1.045 (30° C./65% RH 9M): 0.340
Impurity RRT 1.095 (30° C./65% RH 9M): 0.150
Impurity RRT 1.449 (30° C./65% RH 9M): 0.216
Impurity RRT 1.596 (30° C./65% RH 9M): 0.103
Impurity RRT 1.640 (30° C./65% RH 9M): 0.064
Impurity RRT 1.698 (30° C./65% RH 9M): 0.053
Total Impurity (30° C./65% RH 9M): 1.333
Water (30° C./65% RH 9M): 4.91 % W/W
Assay (30° C./65% RH 12M): 97.80 % W/W
Description (30° C./65% RH 12M): White
Highest Impurity (30° C./65% RH 12M): 0.424
Impurity RRT 0.935 (30° C./65% RH 12M): 0.424
Impurity RRT 1.045 (30° C./65% RH 12M): 0.363
Impurity RRT 1.095 (30° C./65% RH 12M): 0.172
Impurity RRT 1.449 (30° C./65% RH 12M): 0.197
Impurity RRT 1.596 (30° C./65% RH 12M): 0.089
Impurity RRT 1.640 (30° C./65% RH 12M): 0.064
Impurity RRT 1.698 (30° C./65% RH 12M): 0.058
Total Impurity (30° C./65% RH 12M): 1.367
Water (30° C./65% RH 12M): 5.33 % W/W
Assay (40° C./75% RH 1M): 98.23 % W/W
Description (40° C./75% RH 1M): White
Highest Impurity (40° C./75% RH 1M): 0.452
Impurity RRT 0.935 (40° C./75% RH 1M): 0.452
Impurity RRT 1.045 (40° C./75% RH 1M): 0.372
Impurity RRT 1.095 (40° C./75% RH 1M): 0.162
Impurity RRT 1.44 (40° C./75% RH 1M): 0.215
Impurity RRT 1.590 (40° C./75% RH 1M): 0.100
Impurity RRT 1.640 (40° C./75% RH 1M): 0.071
Impurity RRT 1.698 (40° C./75% RH 1M): 0.066
Total Impurity (40° C./75% RH 1M): 1.46
Water (40° C./75% RH 1M): 4.33 % W/W
Assay (40° C./75% RH 2M): 98.23 % W/W
Description (40° C./75% RH 2M): White
Highest Impurity (40° C./75% RH 2M): 0.422
Impurity RRT 0.935 (40° C./75% RH 2M): 0.422
Impurity RRT 1.045 (40° C./75% RH 2M): 0.351
Impurity RRT 1.095 (40° C./75% RH 2M): 0.169
Impurity RRT 1.18 (40° C./75% RH 2M): 0.052
Impurity RRT 1.44 (40° C./75% RH 2M): 0.219
Impurity RRT 1.590 (40° C./75% RH 2M): 0.090
Impurity RRT 1.640 (40° C./75% RH 2M): 0.066
Impurity RRT 1.698 (40° C./75% RH 2M): 0.065
Total Impurity (40° C./75% RH 2M): 1.44
Water (40° C./75% RH 2M): 4.40 % W/W
Assay (40° C./75% RH 3M): 98.2 % W/W
Description (40° C./75% RH 3M): White
Highest Impurity (40° C./75% RH 3M): 0.423
Impurity RRT 0.935 (40° C./75% RH 3M): 0.423
Impurity RRT 1.045 (40° C./75% RH 3M): 0.360
Impurity RRT 1.095 (40° C./75% RH 3M): 0.174
Impurity RRT 1.44 (40° C./75% RH 3M): 0.218
Impurity RRT 1.590 (40° C./75% RH 3M): 0.102
Impurity RRT 1.640 (40° C./75% RH 3M): 0.065
Impurity RRT 1.698 (40° C./75% RH 3M): 0.064
Total Impurity (40° C./75% RH 3M): 1.41
Water (40° C./75% RH 3M): 4.75 % W/W
Assay (40° C./75% RH 6M): 98.16 % W/W
Description (40° C./75% RH 6M): White
Highest Impurity (40° C./75% RH 6M): 0.418
Impurity RRT 0.138 (40° C./75% RH 6M): 0.107
Impurity RRT 0.935 (40° C./75% RH 6M): 0.418
Impurity RRT 1.045 (40° C./75% RH 6M): 0.347
Impurity RRT 1.095 (40° C./75% RH 6M): 0.161
Impurity RRT 1.449 (40° C./75% RH 6M): 0.187
Impurity RRT 1.596 (40° C./75% RH 6M): 0.087
Impurity RRT 1.640 (40° C./75% RH 6M): 0.050
Impurity RRT 1.698 (40° C./75% RH 6M): 0.052
Total Impurity (40° C./75% RH 6M): 1.409
Water (40° C./75% RH 6M): 5.44 % W/W
Assay (Initial): 98.43 % W/W
Description (Initial): White
Highest Impurity (Initial): 0.428
Impurity RRT 0.706 (Initial): 0.045
Impurity RRT 0.935 (Initial): 0.428
Impurity RRT 1.045 (Initial): 0.349
Impurity RRT 1.095 (Initial): 0.159
Impurity RRT 1.44 (Initial): 0.235
Impurity RRT 1.590 (Initial): 0.093
Impurity RRT 1.640 (Initial): 0.054
Impurity RRT 1.698 (Initial): 0.084
Total Impurity (Initial): 1.438
Water (Initial): 4.76 % W/W
Compound: CC(C)c1c(C(=O)Nc2ccc(CO)cc2)c(-c2ccccc2)c(-c2ccc(F)cc2)n1CC[C@@H](O)C[C@@H](O)CC(=O)[O-].CC(C)c1c(C(=O)Nc2ccc(CO)cc2)c(-c2ccccc2)c(-c2ccc(F)cc2)n1CC[C@@H](O)C[C@@H](O)CC(=O)[O-].[Ca+2] [Form I, (3R,5)-7-[2-(4-fluorophenyl)-5-isopropyl-3-phenyl-4-[(4-hydroxymethylphenylamino)carbonyl]-pyrrol-1-yl]-3,5-dihydroxy-heptanoic acid, hemi calcium salt]

From patent US20080153896A1, “Polymorphic Forms of an HMG-CoA Reductase Inhibitor and Uses Thereof” (priority 2006, published 2008)
